The NIST ThermoML archive (doi:10.1007/s10765-010-0862-1)

Key:
[1] = 101.3 kPa, Liquid
[2] = mn = molality of the nth substance listed, in mol/kg; details: 101.3 kPa, Liquid

O [water]
[1]
Details	speed of sound [m/s]
313.15 K	1528
318.15 K	1535.2

CN(C)C(=N)NC(=N)N.Cl [N,N-dimethylimidodicarbonimidic diamide hydrochloride] + O
[2]
Details	mass density, 308.15 K [kg/m3]	mass density, 313.15 K [kg/m3]	mass density, 318.15 K [kg/m3]	speed of sound, 308.15 K [m/s]	speed of sound, 313.15 K [m/s]	speed of sound, 318.15 K [m/s]
m1 = 0.05	997.5	996	994.3	1527.4	1534.4	1539.2
m1 = 0.1	999.1	997.2	995.5	1529	1537.8	1541
m1 = 0.15	1000.2	998.8	997.2	1530	1541.2	1543.8

NCCCC(=O)O [4-aminobutanoic acid] + O
[2]
Details	mass density, m1 = 0.02 [kg/m3]	mass density, m1 = 0.04 [kg/m3]	mass density, m1 = 0.06 [kg/m3]	mass density, m1 = 0.08 [kg/m3]	mass density, m1 = 0.1 [kg/m3]	speed of sound, m1 = 0.02 [m/s]	speed of sound, m1 = 0.04 [m/s]	speed of sound, m1 = 0.06 [m/s]	speed of sound, m1 = 0.08 [m/s]	speed of sound, m1 = 0.1 [m/s]
308.15 K	994.6	995.2	995.8	996.4	997	1521.8	1523	1524.3	1525.6	1527
313.15 K	992.8	993.4	994	994.6	995.2	1529.4	1530.7	1532	1533.3	1534.6
318.15 K	990.8	991.4	992	992.6	993.2	1536.5	1537.7	1538.9	1540.1	1541.3
